Source: BindingDB's records for patent US20250313563 (The Broad Institute, 2025)
Several values for one entry are separate records, joined by “and”; a condition that tells them apart may be missing. Equal values may be shown once.

Assays:
[1] = target: Glycogen synthase kinase-3 alpha (Homo sapiens, UniProt P49840); assay: TR-FRET Assay
Method in brief: (§1)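 Compound was preincubated 30 min in assay buffer before the kinase reaction, which was quenched with EDTA. Phosphorylation was detected by TR-FRET after adding a solution of 40 nM streptavidin-d2 and 2 nM Tb-labelled anti-pSer641 antibody.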

[2] = target: Glycogen synthase kinase-3 beta (Homo sapiens, UniProt P49841); assay: TR-FRET Assay
Method in brief: as §1

Glycogen synthase kinase-3 alpha, sequence (P49840 whole entry): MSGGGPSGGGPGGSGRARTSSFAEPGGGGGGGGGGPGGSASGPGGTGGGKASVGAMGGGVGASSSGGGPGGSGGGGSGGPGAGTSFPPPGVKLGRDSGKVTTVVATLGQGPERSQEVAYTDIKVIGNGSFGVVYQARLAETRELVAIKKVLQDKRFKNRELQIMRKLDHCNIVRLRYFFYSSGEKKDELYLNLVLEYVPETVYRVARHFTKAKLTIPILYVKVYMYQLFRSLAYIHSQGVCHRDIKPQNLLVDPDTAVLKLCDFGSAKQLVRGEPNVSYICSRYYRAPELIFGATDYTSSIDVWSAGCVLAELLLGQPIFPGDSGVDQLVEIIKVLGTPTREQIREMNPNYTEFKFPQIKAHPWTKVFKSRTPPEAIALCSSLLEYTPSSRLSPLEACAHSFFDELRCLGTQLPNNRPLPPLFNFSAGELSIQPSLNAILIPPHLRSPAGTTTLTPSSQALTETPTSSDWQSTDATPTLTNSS
Glycogen synthase kinase-3 beta, sequence (P49841 whole entry): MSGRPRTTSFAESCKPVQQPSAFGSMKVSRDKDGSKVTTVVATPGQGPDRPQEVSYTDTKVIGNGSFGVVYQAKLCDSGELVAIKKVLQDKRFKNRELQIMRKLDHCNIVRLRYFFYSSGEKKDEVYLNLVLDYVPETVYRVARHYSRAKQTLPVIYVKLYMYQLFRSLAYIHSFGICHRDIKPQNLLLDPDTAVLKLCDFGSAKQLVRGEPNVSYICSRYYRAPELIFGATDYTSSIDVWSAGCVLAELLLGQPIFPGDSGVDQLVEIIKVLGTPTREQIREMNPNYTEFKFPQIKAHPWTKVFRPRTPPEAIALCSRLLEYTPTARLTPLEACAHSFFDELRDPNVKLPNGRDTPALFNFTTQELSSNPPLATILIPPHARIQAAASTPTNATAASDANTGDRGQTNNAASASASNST

Structure (SMILES)	IC50 [1]	IC50 [2]
CC[C@]1(c2cccc(C(F)(F)F)c2)C2=CN=NC2NC2=C1C(=O)N(c1ccccn1)CC2 (some centres not stated) [US20250313563, Compound 949310]	0.1 to 1 µM	0.1 to 1 µM
Cc1cnccc1[C@H]1CC[C@]2(CC1)C1=C(N=NC1)NC1=C2C(=O)CC(C)(C)C1 [US20250313563, Compound 949318]	0.1 to 1 µM	0.1 to 1 µM
Cn1cc([C@H]2CC[C@@]3(CC2)C2=C(N=NC2)NC2=C3C(=O)CC(C)(C)C2)cn1 [US20250313563, Compound 949323]	1 to 5 µM	> 5 µM
CCC1(c2cccc(-c3ccncc3F)c2)C2=C(CC(C)(C)NC2=O)NC2N=NC(Cl)=C21 (configuration not stated) [US20250313563, Compound 949324]	< 0.1 µM and 0.1 to 1 µM	< 0.1 µM and 1 to 5 µM
CCC1(c2cccc(C(C)C)c2)C2=C(N=NC2)NC2=C1C(=O)NC(C)(C)C2 (configuration not stated) [US20250313563, Compound 949326]	< 0.1 µM	0.1 to 1 µM
CC[C@]1(c2cccc(-c3cc(C)ncc3F)c2)C2=C(CC(C)(C)NC2=O)NC2N=NC(C)=C21 (some centres not stated) [US20250313563, Compound 949327]	1 to 5 µM	> 5 µM
CC[C@]1(c2cccc(-c3cn(C)nc3C)c2)C2=C(CC(C)(C)NC2=O)NC2N=NC(Cl)=C21 (some centres not stated) [US20250313563, Compound 949329]	1 to 5 µM	> 5 µM
CC[C@@]1(c2cccc(Oc3ncccn3)c2)C2=CN=NC2NC2=C1C(=O)NC(C)(C)C2 (some centres not stated) [US20250313563, Compound 949330]	< 0.1 µM	0.1 to 1 µM
CC[C@]1(c2cccc(-c3cc(C)nnc3C)c2)C2=C(CC(C)(C)NC2=O)NC2N=NC(C)=C21 (some centres not stated) [US20250313563, Compound 949332]	1 to 5 µM	> 5 µM
CC[C@]1(c2cccc(Oc3ncccn3)c2)C2=CN=NC2NC2=C1C(=O)NC(C)(C)C2 (some centres not stated) [US20250313563, Compound 949335]	> 5 µM	> 5 µM
CC[C@@]1(c2cccc(OC)c2)C2=C(CC(C)(C)NC2=O)NC2N=NC(C)=C21 (some centres not stated) [US20250313563, Compound 949337]	0.1 to 1 µM	1 to 5 µM
CC[C@]1(c2cccc(C3=CNN4CC=CN=C34)c2)C2=CN=NC2NC2=C1C(=O)NC(C)(C)C2 (some centres not stated) [US20250313563, Compound 949389]	1 to 5 µM	> 5 µM

Continued, values first:

IC50 [1]	IC50 [2]	Structure (SMILES)
0.1 to 1 µM	> 5 µM	CC[C@@]1(c2cccc(C(F)(F)F)c2)C2=CN=NC2NC2=C1C(=O)N(c1ccccn1)CC2 (some centres not stated) [US20250313563, Compound 949311]
< 0.1 µM	< 0.1 µM	Cc1cnccc1[C@H]1CC[C@@]2(CC1)C1=C(N=NC1)NC1=C2C(=O)CC(C)(C)C1 [US20250313563, Compound 949319]
0.1 to 1 µM	1 to 5 µM	CC1(C)CC(=O)C2=C(C1)NC1=C(CN=N1)[C@]21CC[C@@H](c2ccncc2)CC1 [US20250313563, Compound 949320]
< 0.1 µM	< 0.1 µM	CC1(C)CC(=O)C2=C(C1)NC1=C(CN=N1)[C@]21CC[C@H](c2ccncc2)CC1 [US20250313563, Compound 949321]
0.1 to 1 µM	1 to 5 µM	Cn1cc([C@H]2CC[C@]3(CC2)C2=C(N=NC2)NC2=C3C(=O)CC(C)(C)C2)cn1 [US20250313563, Compound 949322]
1 to 5 µM	> 5 µM	CC[C@]1(c2cccc(OC)c2)C2=C(CC(C)(C)NC2=O)NC2N=NC(C)=C21 (some centres not stated) [US20250313563, Compound 949328]
< 0.1 µM and 0.1 to 1 µM	0.1 to 1 µM and 1 to 5 µM	CC[C@@]1(c2cccc(-c3cc(C)nnc3C)c2)C2=CN=NC2NC2=C1C(=O)NC(C)(C)C2 (some centres not stated) [US20250313563, Compound 949331]
< 0.1 µM	0.1 to 1 µM	CC[C@@]1(c2cccc(-c3cc(C)nnc3C)c2)C2=C(CC(C)(C)NC2=O)NC2N=NC(C)=C21 (some centres not stated) [US20250313563, Compound 949333]
1 to 5 µM	> 5 µM	CC[C@]1(c2cccc(-c3cc(C)nnc3C)c2)C2=CN=NC2NC2=C1C(=O)NC(C)(C)C2 (some centres not stated) [US20250313563, Compound 949334]
< 0.1 µM	< 0.1 µM	CC[C@@]1(c2cccc(-c3cc(C)ncc3F)c2)C2=C(CC(C)(C)NC2=O)NC2N=NC(C)=C21 (some centres not stated) [US20250313563, Compound 949338]
0.1 to 1 µM	1 to 5 µM	CC[C@]1(c2cccc(C(F)(F)F)c2)C2=CN=NC2NC2=C1C(=O)N(c1cnc(OC)nc1)[C@@H](C)C2 (some centres not stated) [US20250313563, Compound 949352]
0.1 to 1 µM	1 to 5 µM	CC[C@]1(c2cccc(C(F)(F)F)c2)C2=CN=NC2NC2=C1C(=O)N(c1cnc(OC)nc1)[C@@H](C)C2 (some centres not stated) [US20250313563, Compound 949354]
1 to 5 µM	> 5 µM	CC[C@]1(c2cccc(-c3ccnc(C(F)F)c3)c2)C2=CN=NC2NC2=C1C(=O)NC(C)(C)C2 (some centres not stated) [US20250313563, Compound 949388]
1 to 5 µM	> 5 µM	CC[C@]1(c2cccc(C3=CNN4CC(F)=CC(F)=C34)c2)C2=CN=NC2NC2=C1C(=O)NC(C)(C)C2 (some centres not stated) [US20250313563, Compound 949390]
